# Read-outs that look alike come from different tables or passages of the source.
# Tests used:
# Type in all cases: cell-based
# Rhizoctonia solani (Rs) = assay: In vitro pathogen growth inhibition assay, Rs (mycelial plugs); conditions: Rhizoctonia solani, 48 h
# Summary of the method: (§1)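 Spores in 17% V8 liquid medium, or 1.5 mm Rs mycelial plugs in ¼ PDB, incubated with compound; final concentration checked by OD600 for precipitation. OD readings at 24 and 48 h, blank-subtracted, plus visual ratings; value is concentration giving ≥90% growth inhibition.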
# [1] = tested on: Phytophthora capsici (Pc); assay: In vitro pathogen growth inhibition assay, Pc; conditions: 48 h
# Summary of the method: as §1
# [2] = tested on: Fusarium virguliforme (Fv); assay: In vitro pathogen growth inhibition assay, Fv
# Summary of the method: as §1
# Septoria tritici (St) = assay: In vitro pathogen growth inhibition assay, St; conditions: Zymoseptoria tritici, 48 h
# Summary of the method: (§2)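 Value reported is the compound concentration reaching ≥90% growth inhibition, from OD readings at 24 and 48 h after blank subtraction, confirmed visually. Inoculum was spores diluted in 17% V8 medium, except Rs, using 1.5 mm mycelial plugs in ¼ PDB; actual compound concentration corrected via OD600.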
# Botrtyis cinerea (Bc) = assay: In vitro pathogen growth inhibition assay, Bc; conditions: 48 h
# Summary of the method: as §2
# [3] = tested on: Collectotrichum graminicola (Cg); assay: In vitro pathogen growth inhibition assay, Cg; conditions: 48 h
# Summary of the method: as §2
# [4] = tested on: Fusarium moniliforme (Fm); assay: In vitro pathogen growth inhibition assay, Fm; conditions: Fusarium verticillioides
# Summary of the method: as §2
# Diplodia maydis (Dm) = assay: In vitro pathogen growth inhibition assay, Dm; conditions: Stenocarpella maydis, 48 h
# Summary of the method: as §1
# [5] = ≥90% growth inhibition, mycelial plugs, 48 hours, vs 2% DMSO control, read-out: Compound Concentration (ppm) sufficient for ≥90% inhibition of Rs
# [6] = ≥90% growth inhibition, 48 hours, vs 2% DMSO control, read-out: Compound Concentration (ppm) sufficient for ≥90% inhibition of Pc
# [7] = ≥90% growth inhibition, 48 hours, vs 2% DMSO control, read-out: Compound Concentration (ppm) sufficient for ≥90% inhibition of Fv
# [8] = ≥90% growth inhibition, 48 hours, vs 2% DMSO control, read-out: Compound Concentration (ppm) sufficient for ≥90% inhibition of St
# [9] = ≥90% growth inhibition, 48 hours, vs 2% DMSO control, read-out: Compound Concentration (ppm) sufficient for ≥90% inhibition of Bc
# [10] = ≥90% growth inhibition, 48 hours, vs 2% DMSO control, read-out: Compound Concentration (ppm) sufficient for ≥90% inhibition of Cg
# [11] = ≥90% growth inhibition, 48 hours, vs 2% DMSO control, read-out: Compound Concentration (ppm) sufficient for ≥90% inhibition of Fm
# [12] = ≥90% growth inhibition, 48 hours, vs 2% DMSO control, read-out: Compound Concentration (ppm) sufficient for ≥90% inhibition of Dm
# [13] = concentration sufficient to ≥90% inhibition of growth, 48 hours vs 2% DMSO control, read-out: Compound Concentration (ppm) for ≥90% inhibition, Rs
# [14] = concentration sufficient to ≥90% inhibition of growth, 48 hours vs 2% DMSO control, read-out: Compound Concentration (ppm) for ≥90% inhibition, Pc
# [15] = concentration sufficient to ≥90% inhibition of growth, 48 hours vs 2% DMSO control, read-out: Compound Concentration (ppm) for ≥90% inhibition, Fv
# [16] = concentration sufficient to ≥90% inhibition of growth, 48 hours vs 2% DMSO control, read-out: Compound Concentration (ppm) for ≥90% inhibition, St
# [17] = concentration sufficient to ≥90% inhibition of growth, 48 hours vs 2% DMSO control, read-out: Compound Concentration (ppm) for ≥90% inhibition, Bc
# [18] = concentration sufficient to ≥90% inhibition of growth, 48 hours vs 2% DMSO control, read-out: Compound Concentration (ppm) for ≥90% inhibition, Cg
# [19] = concentration sufficient to ≥90% inhibition of growth, 48 hours vs 2% DMSO control, read-out: Compound Concentration (ppm) for ≥90% inhibition, Fm
# [20] = concentration sufficient to ≥90% inhibition of growth, 48 hours vs 2% DMSO control, read-out: Compound Concentration (ppm) for ≥90% inhibition, Dm
IC90 (Rhizoctonia solani (Rs); [5]) [µg/mL],"IC90 [1, 6] [µg/mL]","IC90 [2, 7] [µg/mL]",IC90 (Septoria tritici (St); [8]) [µg/mL],IC90 (Botrtyis cinerea (Bc); [9]) [µg/mL],"IC90 [3, 10] [µg/mL]","IC90 [4, 11] [µg/mL]",IC90 (Diplodia maydis (Dm); [12]) [µg/mL],IC90 (Rhizoctonia solani (Rs); [13]) [µg/mL],"IC90 [1, 14] [µg/mL]","IC90 [2, 15] [µg/mL]",IC90 (Septoria tritici (St); [16]) [µg/mL],IC90 (Botrtyis cinerea (Bc); [17]) [µg/mL],"IC90 [3, 18] [µg/mL]","IC90 [4, 19] [µg/mL]",IC90 (Diplodia maydis (Dm); [20]) [µg/mL],Compound
2,> 50,2,> 50,2,2,≥ 0.08,2,–,–,–,–,–,–,–,–,COc1ccc(F)cc1[C@H](Cn1c(=O)n(C(C)(C)C(N)=O)c(=O)c2c(C)c(-n3nccn3)sc21)OCC(C)C [Compound I-165]
10,> 50,2,≥ 50,2,2,≥ 0.08,≥ 2,–,–,–,–,–,–,–,–,COc1ccc(F)cc1[C@H](Cn1c(=O)n(C(C)(C)C(=O)N2CCCCC2)c(=O)c2c(C)c(-n3cccn3)sc21)OC1CCOCC1 [Compound I-166]
≥ 0.4,50,2,> 50,2,≥ 0.4,≥ 0.08,2,–,–,–,–,–,–,–,–,COc1ccc(F)cc1[C@H](Cn1c(=O)n(C(C)(C)C(=O)N2CCCC2)c(=O)c2c(C)c(-n3nccn3)sc21)OC[C@@H](C)O [Compound I-167]
50,> 50,> 50,> 50,10,≥ 50,≥ 2,50,–,–,–,–,–,–,–,–,COc1ccc(F)cc1[C@H](Cn1c(=O)n(C(C)(C)C(N)=O)c(=O)c2c(C)c(-n3cccn3)sc21)OC1CCC(=O)CC1 [Compound I-170]
10,> 50,50,> 50,2,50,2,10,–,–,–,–,–,–,–,–,COCCO[C@@H](Cn1c(=O)n([C@@H](C)C(=O)NC(C)C)c(=O)c2c(C)c(-n3nccn3)sc21)c1cc(F)ccc1OC [Compound I-172]
–,–,–,–,–,–,–,–,10,> 50,> 50,> 50,50,≥ 50,50,> 50,COc1ccc(F)cc1[C@H](Cn1c(=O)n(C(C)(C)C(=O)NC(C)C)c(=O)c2c(C)c(-n3nccn3)sc21)OCCN(C)C [Compound I-173]
–,–,–,–,–,–,–,–,50,> 50,10,> 50,10,50,10,10,CCOC(=O)c1sc2c(c1C)c(=O)n(C(C)(C)C(N)=O)c(=O)n2C[C@H](OC1CCOCC1)c1ccccc1OC [Compound I-174]
–,–,–,–,–,–,–,–,> 50,> 50,10,> 50,2,50,10,10,CCNC(=O)C(C)(C)n1c(=O)c2c(C)c(C(=O)OCC)sc2n(C[C@H](OC2CCOCC2)c2ccccc2OC)c1=O [Compound I-175]
10,> 50,0.4,> 50,2,2,0.08,2,–,–,–,–,–,–,–,–,CCOC(=O)c1sc2c(c1C)c(=O)n(C(C)(C)C(=O)NC(C)C)c(=O)n2C[C@H](OCCOC)c1cc(F)ccc1OC [Compound I-177]
0.4,> 50,2,≥ 50,2,≥ 0.4,0.4,2,–,–,–,–,–,–,–,–,CCOC(=O)c1sc2c(c1C)c(=O)n(C(C)(C)C(=O)N1CCCC1)c(=O)n2C[C@H](OCCO)c1cc(F)ccc1OC [Compound I-178]
10,> 50,> 2,> 50,2,≥ 2,0.4,10,–,–,–,–,–,–,–,–,CCOC(=O)c1sc2c(c1C)c(=O)n(C(C)(C)C(=O)N1CCCC1)c(=O)n2C[C@H](OCCOC)c1cc(F)ccc1OC [Compound I-179]
